From patent publication US9695155B2, “Herbicidal substituted pyrimidinyloxy benzene compounds” (E. I. DU PONT DE NEMOURS AND COMPANY, priority 2013, dated 2017)

Legend:
galium = test: Test C preemergence; assay type: in vivo, Galium aparine; details: for Galium plant response rating: preemergence
Summary of the method: (§1)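 Whole-plant greenhouse test with surfactant-containing solvent formulation, applied preemergence to sown loam–sand pots or postemergence to 2–18 cm plants. Scored by eye 13 to 15 days on, 0–100 scale.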

ragweed [1] = test: Test C postemergence; assay type: in vivo, Ambrosia elatior; details: for Plant response rating, Ragweed: scale 0 to 100 (0 no effect, 100 complete control)
Summary of the method: as §1

pigweed [2] = test: Test C postemergence; assay type: in vivo, Amaranthus retroflexus; details: for Plant response rating, Pigweed: scale 0 to 100 (0 no effect, 100 complete control)
Summary of the method: as §1

lambsquarters [3] = test: Test C preemergence; assay type: in vivo, Chenopodium album; details: for Lambsquarters plant response rating: preemergence
Summary of the method: as §1

soybean = test: Test C postemergence; assay type: in vivo, Glycine max; details: for Plant response rating, Soybean: scale 0 to 100 (0 no effect, 100 complete control)
Summary of the method: as §1

waterhemp = test: Test C postemergence; assay type: in vivo, Amaranthus rudis; details: for Plant response rating, Waterhemp: scale 0 to 100 (0 no effect, 100 complete control)
Summary of the method: as §1

lambsquarters [4] = test: Test C postemergence; assay type: in vivo, Chenopodium album; details: for Plant response rating, Lambsquarters: scale 0 to 100 (0 no effect, 100 complete control)
Summary of the method: as §1

corn [5] = test: Test A postemergence; assay type: in vivo, Zea mays; details: 0 to 100 scale where 0 is no effect and 100 is complete control
Summary of the method: (§2)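 Pre- and postemergence greenhouse screen. Soil: loam + sand. Spray carrier: solvent mixture, non-phytotoxic, with surfactant. Post timing at 1–2 leaves, height 2–10 cm. Readout: visual injury on a 0–100 scale roughly 10 days after application, untreated plants as reference.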

giant foxtail [6] = test: Test C postemergence; assay type: in vivo, Setaria faberii; details: for Plant response rating, Foxtail, Giant: scale 0 to 100 (0 no effect, 100 complete control)
Summary of the method: as §1

morningglory [7] = test: Test C preemergence; assay type: in vivo, Ipomoea coccinea; details: for Morningglory plant response rating: preemergence
Summary of the method: as §1

giant foxtail [8] = test: Test A postemergence; assay type: in vivo, Setaria faberii; details: 0 to 100 scale where 0 is no effect and 100 is complete control
Summary of the method: as §2

large (Lg) crabgrass = test: Test C postemergence; assay type: in vivo, Digitaria sanguinalis; details: for Plant response rating, Crabgrass, Large: scale 0 to 100 (0 no effect, 100 complete control)
Summary of the method: as §1

velvetleaf = test: Test C preemergence; assay type: in vivo, Abutilon theophrasti; details: for Velvetleaf plant response rating: preemergence
Summary of the method: as §1

ragweed [9] = test: Test C preemergence; assay type: in vivo, Ambrosia elatior; details: for Ragweed plant response rating: preemergence
Summary of the method: as §1

corn [10] = test: Test C preemergence; assay type: in vivo, Zea mays; details: for Corn plant response rating: preemergence
Summary of the method: as §1

morningglory [11] = test: Test C postemergence; assay type: in vivo, Ipomoea coccinea; details: for Plant response rating, Morningglory: scale 0 to 100 (0 no effect, 100 complete control)
Summary of the method: as §1

pigweed [12] = test: Test A postemergence; assay type: in vivo, Amaranthus retroflexus; details: 0 to 100 scale where 0 is no effect and 100 is complete control
Summary of the method: as §2

[13] = 16 g ai/ha, scale 0 to 100 (0 no effect, 100 complete control)
[14] = 62 g ai/ha, scale 0 (no effect) to 100 (complete control)
[15] = 125 g ai/ha, scale 0 (no effect) to 100 (complete control)
[16] = Preemergence, 31 g ai/ha, scale 0 to 100, 0 no effect, 100 complete control
[17] = 16 g ai/ha, postemergence, 0 is no effect, 100 is complete control
[18] = 125 g ai/ha, postemergence, visual rating

In the case of `Clc1cnc(Oc2cccc(Br)c2-n2cc(Br)nn2)nc1` [Compound 129], the “Galium plant response rating” value (galium; [13]) is reported as 50, the “Galium plant response rating” value (galium; [14]) is reported as 95 and the “Galium plant response rating” value (galium; [15]) is reported as 100. For the same compound, the “Plant response rating, Galium” value (galium; [16]) was 80, the “Plant response rating (0 to 100), Ragweed” value (ragweed [1]; [17]) was 15 and the “Plant response rating, Ragweed” value (ragweed [1]; [18]) was 85. For the same compound, the “Plant response rating, Ragweed” value (ragweed [1]; Postemergence, 62 g ai/ha) was 40, the “Plant response rating (0 to 100), Pigweed” value (pigweed [2]; [17]) was 70 and the “Plant response rating, Pigweed” value (pigweed [2]; [18]) was 90. For the same compound, the “Plant response rating, Pigweed” value (pigweed [2]; Postemergence, 62 g ai/ha) was 80, the “Lambsquarters plant response rating” value (lambsquarters [3]; [13]) was 50 and the “Lambsquarters plant response rating” value (lambsquarters [3]; [14]) was 100. The “Lambsquarters plant response rating” value (lambsquarters [3]; [15]) was 100, the “Plant response rating, Lambsquarters” value (lambsquarters [3]; [16]) was 40 and the “Plant response rating (0 to 100), Soybean” value (soybean; [17]) was 35. The “Plant response rating, Soybean” value (soybean; [18]) was 60, the “Plant response rating, Soybean” value (soybean; Postemergence, 62 g ai/ha) was 85 and the “Plant response rating (0 to 100), Waterhemp” value (waterhemp; [17]) was 65. The “Plant response rating, Waterhemp” value (waterhemp; [18]) was 85, the “Plant response rating, Waterhemp” value (waterhemp; Postemergence, 62 g ai/ha) was 65 and the “Plant response rating (0 to 100), Lambsquarters” value (lambsquarters [4]; [17]) was 35. The “Plant response rating, Lambsquarters” value (lambsquarters [4]; [18]) was 85, the “Plant response rating, Lambsquarters” value (lambsquarters [4]; Postemergence, 62 g ai/ha) was 80 and the “Corn plant response rating” value (corn [5]; 125 g ai/ha) was 30. The “Plant response rating, Corn” value (corn [5]; 500 g ai/ha) was 50, the “Plant response rating (0 to 100), Foxtail, Giant” value (giant foxtail [6]; [17]) was 5 and the “Plant response rating, Foxtail, Giant” value (giant foxtail [6]; [18]) was 10. For the same compound, the “Plant response rating, Foxtail, Giant” value (giant foxtail [6]; Postemergence, 62 g ai/ha) was 5, the “Morningglory plant response rating” value (morningglory [7]; [13]) was 5 and the “Morningglory plant response rating” value (morningglory [7]; [14]) was 45. The “Morningglory plant response rating” value (morningglory [7]; [15]) was 75, the “Plant response rating, Morningglory” value (morningglory [7]; [16]) was 35 and the “Foxtail, Giant plant response rating” value (giant foxtail [8]; 125 g ai/ha) was 90. The “Plant response rating, Foxtail, Giant” value (giant foxtail [8]; 500 g ai/ha) was 100, the “Plant response rating (0 to 100), Crabgrass, Large” value (large (Lg) crabgrass; [17]) was 5 and the “Plant response rating, Crabgrass, Large” value (large (Lg) crabgrass; [18]) was 10. For the same compound, the “Plant response rating, Crabgrass, Large” value (large (Lg) crabgrass; Postemergence, 62 g ai/ha) was 5, the “Velvetleaf plant response rating” value (velvetleaf; [13]) was 35 and the “Velvetleaf plant response rating” value (velvetleaf; [14]) was 100. The “Velvetleaf plant response rating” value (velvetleaf; [15]) was 100, the “Plant response rating, Velvetleaf” value (velvetleaf; [16]) was 70 and the “Ragweed plant response rating” value (ragweed [9]; [13]) was 0. For the same compound, the “Ragweed plant response rating” value (ragweed [9]; [14]) was 60, the “Ragweed plant response rating” value (ragweed [9]; [15]) was 85 and the “Plant response rating, Ragweed” value (ragweed [9]; [16]) was 20. The “Corn plant response rating” value (corn [10]; [13]) was 0, the “Corn plant response rating” value (corn [10]; [14]) was 5 and the “Corn plant response rating” value (corn [10]; [15]) was 30. The “Plant response rating, Corn” value (corn [10]; [16]) was 5, the “Plant response rating (0 to 100), Morningglory” value (morningglory [11]; [17]) was 75 and the “Plant response rating, Morningglory” value (morningglory [11]; [18]) was 85. For the same compound, the “Plant response rating, Morningglory” value (morningglory [11]; Postemergence, 62 g ai/ha) was 80, the “Pigweed plant response rating” value (pigweed [12]; 125 g ai/ha) was 100 and the “Plant response rating, Pigweed” value (pigweed [12]; 500 g ai/ha) was 100.
